Source: ChEMBL document CHEMBL1201862, “PubChem BioAssay data set” (2004)
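A five-concentration, 48-hour dose response in 96-well plates underlies each endpoint, interpolated linearly between surrounding concentrations. GI50 marks 50% less growth.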 Activity calls are given as the source filed them. Rule as the data show it: active = GI50 up to about 1.1 µM and inactive = higher.

Columns and labels:
Assay in all cases: inhibition of tumour cell growth, NCI panel, 48 h
[1] = test system: HL-60
[2] = test system: SNB-75
[3] = test system: SNB-19
[4] = test system: BT-549
[5] = test system: A549
[6] = test system: SK-MEL-2
[7] = test system: SK-MEL-5
[8] = test system: CAKI-1
[9] = test system: SF-268
[10] = test system: HT-29
[11] = test system: Hs-578T
[12] = test system: HOP-92
[13] = test system: KM12
[14] = test system: UO-31
[15] = test system: M14
[16] = test system: A498
[17] = test system: HCT-116
[18] = test system: TK-10
[19] = test system: HOP-62
[20] = test system: SR

Compound: O=C(O)CNC(=O)C1NC(C(F)(F)F)(C(F)(F)F)OC1(C(F)(F)F)C(F)(F)F (stereo not given)
- GI50 [1]: > 100 µM (inactive)
- GI50 [2]: > 100 µM (inactive)
- GI50 [3]: > 100 µM (inactive)
- GI50 [4]: > 100 µM (inactive)
- GI50 [5]: > 100 µM (inactive)
- GI50 [6]: > 100 µM (inactive)
- GI50 [7]: > 100 µM (inactive)
- GI50 [8]: > 100 µM (inactive)
- GI50 [9]: > 100 µM (inactive)
- GI50 [10]: > 100 µM (inactive)
- GI50 [11]: > 100 µM (inactive)
- GI50 [12]: > 100 µM (inactive)
- GI50 [13]: > 100 µM (inactive)
- GI50 [14]: > 100 µM (inactive)
- GI50 [15]: > 100 µM (inactive)
- GI50 [16]: > 100 µM (inactive)
- GI50 [17]: > 100 µM (inactive)
- GI50 [18]: > 100 µM (inactive)
- GI50 [19]: > 100 µM (inactive)
- GI50 [20]: > 100 µM (inactive)

Compound: O=[N+]([O-])c1cc(Cl)cc2cc(Br)cnc12
- GI50 [1]: > 31.6 µM (inactive)
- GI50 [2]: > 31.6 µM (inactive)
- GI50 [3]: 27.8 µM (inactive)
- GI50 [4]: 28.1 µM (inactive)
- GI50 [5]: > 31.6 µM (inactive)
- GI50 [6]: 39.9 µM (inactive)
- GI50 [7]: 16.7 µM (inactive)
- GI50 [8]: > 10 µM (inactive)
- GI50 [9]: > 10 µM (inactive)
- GI50 [10]: > 31.6 µM (inactive)
- GI50 [11]: 17.6 µM (inactive)
- GI50 [12]: 5.46 µM (inactive)
- GI50 [13]: > 10 µM (inactive)
- GI50 [14]: > 31.6 µM (inactive)
- GI50 [15]: > 31.6 µM (inactive)
- GI50 [16]: 23.6 µM (inactive)
- GI50 [17]: > 31.6 µM (inactive)
- GI50 [18]: 27.7 µM (inactive)
- GI50 [19]: > 31.6 µM (inactive)
- GI50 [20]: > 31.6 µM (inactive)

Compound: CC(C)(Oc1ccc(Cl)cc1)C(=O)N(C(=O)N1CCC(c2ccccc2)CC1)c1ccccc1
- GI50 [1]: 1.6 µM (inactive)
- GI50 [2]: > 26.1 µM (inactive)
- GI50 [3]: > 100 µM (inactive)
- GI50 [4]: 23.4 µM (inactive)
- GI50 [5]: 34.5 µM (inactive)
- GI50 [6]: > 59.7 µM (inactive)
- GI50 [7]: 4.94 µM (inactive)
- GI50 [8]: 46 µM (inactive)
- GI50 [9]: > 100 µM (inactive)
- GI50 [10]: 22.5 µM (inactive)
- GI50 [11]: > 73.8 µM (inactive)
- GI50 [12]: > 100 µM (inactive)
- GI50 [13]: 15.5 µM (inactive)
- GI50 [14]: 22.4 µM (inactive)
- GI50 [15]: 65 µM (inactive)
- GI50 [16]: > 82.8 µM (inactive)
- GI50 [17]: 4.78 µM (inactive)
- GI50 [18]: > 30.1 µM (inactive)
- GI50 [19]: > 100 µM (inactive)
- GI50 [20]: > 100 µM (inactive)

Compound: CCOC(=O)c1[nH]c(Br)c(-c2ccc(Br)cc2)c1Br
- GI50 [1]: 2.09 µM (inactive)
- GI50 [2]: 0.327 µM (active)
- GI50 [3]: 1.3 µM (inactive)
- GI50 [4]: 0.535 µM (active)
- GI50 [5]: 0.863 µM (active)
- GI50 [6]: 0.307 µM (active)
- GI50 [7]: 0.375 µM (active)
- GI50 [8]: 0.8 µM (active)
- GI50 [9]: 0.543 µM (active)
- GI50 [10]: 0.327 µM (active)
- GI50 [11]: 0.395 µM (active)
- GI50 [12]: 1.14 µM (inactive)
- GI50 [13]: 0.459 µM (active)
- GI50 [14]: 1.32 µM (inactive)
- GI50 [15]: 0.386 µM (active)
- GI50 [16]: 1.61 µM (inactive)
- GI50 [17]: 0.376 µM (active)
- GI50 [18]: 3.23 µM (inactive)
- GI50 [19]: 0.671 µM (active)
- GI50 [20]: 0.914 µM (active)
